Entries after “also recorded” stand apart in the source; their conditions may differ.
Assays:
[1] = tested on: primary human cultured fibroblasts; assay: In-vitro wound scratch model, wound closure/migration; format: cell-based; settings: for scratch wound closure after 24 h, remaining gap: FIG. 16b, all opioid antagonists 100 nM, compared to control without any antagonist; for wound closure/migration, gap closure after 24 h: FIG. 16a, compared to control cells in DMSO diluent
Method: All opioid antagonists were used in a concentration of 100 nM.
The stimulation of wound closure in fibroblasts by TGF-beta1 is not surprising. However, the stimulation by the DOR-Antagonist Naltrindole was not expected. In an additional experiment we tested the effect of various specific opioid receptor antagonists on the wound closure/migration of human primary fibroblasts using the in-vitro wound scratch assay.

TAS2R14 [2] = assay: Calcium imaging (Fluo4-AM) of keratinocytes with TAS2R14 ligands; format: cell-based, human; settings: for effect of blocker on calcium response to thujone: keratinocytes; for calcium response: in the presence of 100 μM suramin, 1 mM thujone, FFA in N/TERT cells, n=4; for effect of blocker on calcium responses to thujone and FFA: human skin cells, suramin 100 μM
Method: (§1) Maximal increases in fluorescence were generated in each recording by addition of the ionophore ionomycin at 1 μM, and calcium responses were calculated as percentages compared to maximal ionomycin signal.

TAS2R14 [3] = target: T1, TAS2R14 (Homo sapiens, UniProt Q9NYV8); assay: as above; format: cell-based; settings: for intracellular free calcium (fluorescence of fluo4): bath-application of 1 mM, primary keratinocytes and N/TERT cells
T1 construct: This has allowed functional studies of TAS2R14 to be carried out in a native setting; endogenous in cells; host or cells: human primary keratinocytes and N/TERT immortalised human keratinocytes
T1 sequence (Q9NYV8 1-317): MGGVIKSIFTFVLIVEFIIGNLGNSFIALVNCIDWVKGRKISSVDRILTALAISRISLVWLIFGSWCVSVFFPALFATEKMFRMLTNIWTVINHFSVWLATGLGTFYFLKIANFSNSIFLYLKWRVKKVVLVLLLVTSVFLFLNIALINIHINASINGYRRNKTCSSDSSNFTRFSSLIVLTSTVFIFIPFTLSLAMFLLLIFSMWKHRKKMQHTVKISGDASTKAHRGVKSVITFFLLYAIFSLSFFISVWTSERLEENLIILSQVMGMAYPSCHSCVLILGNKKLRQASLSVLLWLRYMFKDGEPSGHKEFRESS
Method: as §1

[4] = tested on: 6 mm punch wounds on the back of mice; assay: In vivo wound healing, 6 mm punch wounds, topical cream; settings: 1% w/w cream on wounds twice every day; for wound healing (mean healing rate, macroscopic and microscopic): 10 mice per group, vs placebo
Method: The effects of selective DOR antagonist are tested in animal models of wound healing, preferably in mice, to determine whether a selective DOR antagonist improves the quality, rate or extent of wound healing.
In the present example, male mice of 3-4 months old were grouped into 5 groups and 10 in each group. Before experiment, mice are shaved one day before. Pentothal was used for anesthesia before experiments. Seven days experiments are used. Four wounds are made by cutting 6 mm diameter and 3 cm apart. Day 1 wound #1 for 7 day wound, Day 3 wound #2 for 5 day wound, Day 5 wound #3 for 3 day wound, Day 7 wound #4 for 1 day wound, Day 8 mice are sacrifice. […] At the end of experiments on Day 8, the biopsies will be taken from the mice and fixed in 4% formaldehyde and embedded in paraffin block.

DOR-mRNA expression = assay: Semiquantification of DOR mRNA by real time PCR in cultured human primary skin cells; format: cell-based
Description: A: Semiquantification of DOR mRNA by Real Time PCR
It is important to mention, that human cultured melanocytes and keratinocytes express more MOR than DOR mRNA. However, fibroblasts express more DOR than MOR mRNA.

DOR protein expression = assay: Western blot analysis of DOR protein expression in cultured human skin cells; format: cell-based
Description: B: Protein Expression of DOR by Western Blot Analysis: […]

[5] = tested on: Erk phosphorylation (ERK1/2); assay: pERK activation protocol (western blot, anti-phospho ERK1/2) in primary keratinocytes; format: cell-based, human
Method: Primary keratinocytes were grown to 70% and replaced with supplement free medium 16-24 hours before the experiments. The strongly stimulating supplement (25 mg/l bovine pituitary extract and 2.5 ug/l epidermal growth factor, EGF) in complete KFSM (Gibco) medium was used as positive control. Cells were exposed to SNC 80 for 15 min, DMSO (blank control) 15 min, or FCS/complete K-SFM for 30 min at 37° C. […] Cells were lysed in 100 μl RIPA buffer and cell lysates frozen in liquid nitrogen.
Equal amount of protein were separated by electrophoresis over 10% polyacrylamid gels followed by protein transfer onto nitrocellulose membrane. Blots were transferred to primary antibody solution (anti-phospho ERK1/2 in 5% BSA/TBS-T) and incubated at 4° C. over night. After appropriate washing in TBS-T blots were incubated in secondary antibody (anti-rabbit Alexa-680 in 5% milk/TBS-T) for 45 min at room temperature in dark. Blots were washed 3× in TBS-T protected from light. Blots were imaged with the IR imager in 700 nm channel in a scan at 169 μm resolution.

[6] = cultured human primary keratinocytes
[7] = human cultured fibroblasts, 24 h exposure
[8] = human cultured melanocytes, 6 h exposure
[9] = primary human cultured keratinocytes

COc1cccc2c1[C@]13CCN(CC4CC4)[C@H](C2)[C@]1(OC)CCC(=O)C3 [Cyprodime]
scratch wound closure after 24 h, remaining gap [1]: no significant effects

O=C1CN(/N=C/c2ccc(-c3ccc([N+](=O)[O-])cc3)o2)C(O)=N1 [Dantrolene]
effect of blocker on calcium response to thujone (TAS2R14 [2]): significantly attenuate

O=C(O)c1ccccc1Nc1cccc(C(F)(F)F)c1 [FFA, flufenamic acid]
calcium response (TAS2R14 [2]): 31.0±7.0 percentage of ionomycin signal
intracellular free calcium (fluorescence of fluo4) (TAS2R14 [3]): robust increases in intracellular free calcium

O=C1CC[C@@]2(O)[C@H]3Cc4ccc(O)c5c4[C@@]2(CCN3CC2CC2)[C@H]1O5 [Naltrexone]
wound healing (mean healing rate, macroscopic and microscopic) [4]: not effective

Oc1ccc2c3c1O[C@H]1c4oc5ccccc5c4C[C@@]4(O)[C@@H](C2)N(CC2CC2)CC[C@]314 [Naltriben]
scratch wound closure after 24 h, remaining gap [1]: more effective than the mixed DOR1/2 antagonist Naltrindole and much more effective than the DOR1 antagonist BNTX

Oc1ccc2c3c1O[C@H]1c4[nH]c5ccccc5c4C[C@@]4(O)[C@@H](C2)N(CC2CC2)CC[C@]314 [Naltrindole, naltrindole]
wound healing (mean healing rate, macroscopic and microscopic) [4]: significantly improved wound healing at days 5 and 7
wound healing (mean healing rate, macroscopic and microscopic) ([4]; listed as Naltrindol): significant better healing
improvement of wound healing ([4]; compared to placebo): 3 days
wound closure/migration, gap closure after 24 h [1]: significant faster migration and wound closure; also recorded: significant improvement of wound closure/migration
DOR-mRNA expression (DOR-mRNA expression; cultured human primary fibroblasts): increases significantly
DOR-mRNA expression (DOR-mRNA expression; [6]): increases significantly
DOR-mRNA expression (DOR-mRNA expression; cultured human primary melanocytes): increases significantly
DOR-mRNA expression (DOR-mRNA expression; cultured human primary melanocytes, co-incubation of Naltrindole and agonist SNC-80): increases significantly
mRNA of DOR (DOR-mRNA expression; human keratinocytes and melanocytes pre-incubated for 3 hours with 10 μM Naltrindole, then exposed to SNC-80): massively up-regulated
DOR protein expression (DOR protein expression; [7]): important upregulation
DOR protein expression (DOR protein expression; [8]): important up-regulation; also recorded: upregulates
DOR protein expression (DOR protein expression; human cultured melanocytes, combination of antagonist Naltrindole and agonist SNC-80): can upregulate the protein as well; also recorded: can up-regulate the protein as well
DOR protein expression (DOR protein expression; [9]): important up-regulation; also recorded: up-regulates
concentration that promotes phosphorylation of MAP kinase such as Erk ([5]; MAP kinase activation assay for selecting DOR antagonists): less than or equal to 10 μM
Erk phosphorylation (MAPK pathway ERK1/2) ([5]; primary human keratinocytes): strong stimulating effect; also recorded: massive activation of Erk

C=CCN1C[C@H](C)N([C@H](c2ccc(C(=O)N(CC)CC)cc2)c2cccc(OC)c2)C[C@H]1C [SNC-80]
wound healing (mean healing rate, macroscopic and microscopic) [4]: very significant advantage of a specific DOR antagonist over
wound closure/migration, gap closure after 24 h [1]: does not seem to have any stimulation of migration; also recorded: does not seem to change migration
DOR-mRNA expression (DOR-mRNA expression; [6]): increases significantly
DOR protein expression (DOR protein expression; [7]): some up- and downregulation
DOR protein expression (DOR protein expression; [8]): not
DOR protein expression (DOR protein expression; [9]): important up-regulation; also recorded: up-regulates
effect on Naltrindole-stimulated Erk phosphorylation ([5]; primary human keratinocytes): antagonized

C1CCC[C@H]2CCCN3CC[C@@H](CCCCCC[C@@H]4CCCN5CC[C@@H](CC1)O[C@@H]45)O[C@@H]23 [Xestospongin, Xestospongin C]
effect of blocker on calcium response to thujone (TAS2R14 [2]): significantly attenuated; also recorded: highly significant inhibition

COC(=O)/C=C/C(=O)N[C@@H]1CC[C@@]2(O)[C@H]3Cc4ccc(O)c5c4[C@@]2(CCN3CC2CC2)[C@H]1O5 [irreversible blocker of MOR (>KOR>>DOR), beta-Funaltrexamine]
scratch wound closure after 24 h, remaining gap [1]: no significant effects

Cc1ccc(C(=O)Nc2ccc(S(=O)(=O)O)c3cc(S(=O)(=O)O)cc(S(=O)(=O)O)c23)cc1NC(=O)c1cccc(NC(=O)Nc2cccc(C(=O)Nc3cc(C(=O)Nc4ccc(S(=O)(=O)O)c5cc(S(=O)(=O)O)cc(S(=O)(=O)O)c45)ccc3C)c2)c1 [suramin]
effect of blocker on calcium responses to thujone and FFA (TAS2R14 [2]): significantly attenuated
effect of blocker on calcium responses to thujone and FFA (TAS2R14 [2]; listed as Suramin): attenuates significantly

CC(C)[C@]12CC(=O)[C@H](C)[C@H]1C2 [thujone, α-thujone]
calcium response (TAS2R14 [2]): 34.4±8.2 percentage of ionomycin signal
intracellular free calcium (fluorescence of fluo4) (TAS2R14 [3]): robust increases in intracellular free calcium
calcium response (TAS2R14 [3]; control without suramin, 1 mM thujone, FFA in N/TERT cells, n=4): 84.2±5.5 percentage of ionomycin signal

Dalargin
wound healing (mean healing rate, macroscopic and microscopic) [4]: very significant advantage of a specific DOR antagonist over

Ryanodine
effect of blocker on calcium response to thujone (TAS2R14 [2]): significantly attenuate

TGFβ1: known stimulator of wound closure/migration
wound closure/migration, gap closure after 24 h [1]: significant improvement of wound closure/migration
wound closure/migration, gap closure after 24 h ([1]; listed as TGF-beta1): significant faster migration and wound closure

Reference: patent US20150352100A1, “USE OF SELECTIVE DELTA-OPIOID RECEPTOR ANTAGONISTS AND SPECIFIC SENSORY RECEPTOR LIGANDS” (priority 2013, published 2015)
